The subject of assay [1] is Staph aureus, MRSA, Klebsiella pneumoniae, E. coli, Proteus vulgaris, Pseudomonas aeruginosa, Enterobacter cloacae, Acinetobacter lwoffi, Acinetobacter …. Briefly: In-vitro comparison of Lots with different anti-oxidant amounts and control agents (FIGS. 16-27). In kind it is cell-based. The following applies: identical size drops; FIG. 16 Staph aureus, FIG. 17 MRSA, FIGS. 18-24 gram-negative cultures, FIG. 25 Enterococcus faecalis.

For assay [2], the system named is mouse embryonic stem cells and embryoid bodies. The following applies: cited from earlier work.
The test system of the next assay is HL-60 cells. The following applies: cited from earlier work.
The test system of assay [3] is MRSA infection and Grade I diabetic ulcer of the left hallux with cellulitus. The assay is described as follows: Study III: human field study, diabetic foot lesion of great toe. In kind it is in vivo. The following applies: IV; 8 days following admission.
Protocol: In this embodiment, the additional ingredient to hasten a third therapeutic tissue healing effect was added. This embodiment used vitamin D in a small but medically efficacious amount.

In the case of `CO[C@@]1(NC(=O)Cc2cccs2)C(=O)N2C(C(=O)O)=C(COC(N)=O)CS[C@@H]21` [Cefoxicillin], the “zones of inhibition of control agents compared with the formulations of the invention” value in assay [1] is on record as “considerably reduced zones of inhibition”. As for `C[S+](C)[O-]` [DMSO, dimethyl sulfoxide], the “effect on mRNA and protein expression in epigenetic profiles” value in assay [2] is “upregulation of mRNA and protein expression”. Moreover, in the assay with HL-60 cells, the “amount at which desired cellular responses occurred” value is “less than 2%” and the “subsequent retinoid-induced TGM2 expression after priming by pretreatment” value was “increases”. With `CC[C@H]1OC(=O)[C@H](C)[C@@H](O[C@H]2C[C@@](C)(OC)[C@@H](O)[C@H](C)O2)[C@H](C)[C@@H](O[C@@H]2O[C@H](C)C[C@H](N(C)C)[C@H]2O)[C@](C)(O)C[C@@H](C)C(=O)[C@H](C)[C@@H](O)[C@]1(C)O` [Erythromycin], the “zones of inhibition of control agents compared with the formulations of the invention” value in assay [1] is reported as “considerably reduced zones of inhibition”. As to `CN[C@H](CC(C)C)C(=O)N[C@H]1C(=O)N[C@@H](CC(N)=O)C(=O)N[C@H]2C(=O)N[C@H]3C(=O)N[C@H](C(=O)N[C@H](C(=O)O)c4cc(O)cc(O)c4-c4cc3ccc4O)[C@H](O)c3ccc(c(Cl)c3)Oc3cc2cc(c3O[C@@H]2O[C@H](CO)[C@@H](O)[C@H](O)[C@H]2O[C@H]2C[C@](C)(N)[C@H](O)[C@H](C)O2)Oc2ccc(cc2Cl)[C@H]1O` [Vancomycin], in assay [1], the “zones of inhibition of control agents compared with the formulations of the invention” value is given as “considerably reduced zones of inhibition”. In assay [3], the “patient response to treatment for MRSA” value is listed as “did not respond”. As for vitamin D, in the assay on HL-60 cells, the “amount at which desired cellular responses occurred” value is given as “about 100 nM” and the “subsequent retinoid-induced TGM2 expression after priming by pretreatment” value was “increases”.

(Values after US20120082632A1, “Topical drug delivery system with dual carriers” (priority 2010, published 2012).)
